Experimental data as given in patent US4425432A (priority 1981, dated 1984).
Read-outs that look alike come from different tables or passages of the source.

Assays:
Clostridium pasteurianum = experiment: microbe, parasite or virus in culture; assay type: cell-based
Marburg strain = experiment: microbe, parasite or virus in culture; assay type: cell-based, Butyribacterium methylotrophicum
[1] = Clostridium pasteurianum, 1 h, read-out: % Inhibition of growth, Clostridium pasteurianum
[2] = [Butyribacterium] methylotrophicum, 192 h, read-out: % Inhibition of growth, Marburg strain

In the case of `O=C(N[C@H](CO)[C@H](O)c1ccc([N+](=O)[O-])cc1)C(Cl)Cl` [Chloramphenicol], the inhibition at 100 µg/mL (Clostridium pasteurianum; [1]) is reported as 100% and the inhibition at 100 µg/mL (Marburg strain; [2]) is reported as 100%.

In the case of `O=O` [Oxygen], the “% Inhibition of growth, Clostridium pasteurianum” value (Clostridium pasteurianum) is reported as 100%, the “% Inhibition of growth, Marburg strain” value (Marburg strain) is reported as 100% and the “sensitivity of the Marburg strain (B. methylotrophicum) to antibiotics and inhibitors, in words” value (Marburg strain) is reported as “effective inhibitor of growth”.

`CC1(C)S[C@@H]2[C@H](NC(=O)Cc3ccccc3)C(=O)N2[C@H]1C(=O)O` [Penicillin] was tested, and the inhibition at 100 µg/mL (Clostridium pasteurianum; [1]) was 100% and the inhibition at 100 µg/mL (Marburg strain; [2]) was 100%.

For `[N-]=[N+]=[N-]` [Sodium azide], the inhibition at 50 µg/mL (Clostridium pasteurianum; [1]) was 100%, the inhibition at 250 µg/mL (Clostridium pasteurianum; [1]) was 93% and the “sensitivity of the Marburg strain (B. methylotrophicum) to antibiotics and inhibitors, in words” value (Marburg strain) was “noticeably more tolerant”. The inhibition at 50 µg/mL (Marburg strain; [2]) was 0% and the inhibition at 250 µg/mL (Marburg strain; [2]) was 0%.

With `[Cl-].[Na+]` [Sodium chloride] the “% Inhibition of growth, Clostridium pasteurianum” value (Clostridium pasteurianum; 2%) was 73%, the “sensitivity of the Marburg strain (B. methylotrophicum) to antibiotics and inhibitors, in words” value (Marburg strain) was “noticeably more tolerant” and the “% Inhibition of growth, Marburg strain” value (Marburg strain; 2%) was 0%.

In the case of `[H]/N=C(/N)N[C@H]1[C@H](O)[C@@H](O)[C@H](O[C@@H]2O[C@@H](C)[C@](O)(C=O)[C@H]2O[C@@H]2O[C@@H](CO)[C@H](O)[C@@H](O)[C@@H]2NC)[C@@H](N/C(N)=N\[H])[C@@H]1O` [Streptomycin], the inhibition at 100 µg/mL (Clostridium pasteurianum; [1]) is reported as 100% and the inhibition at 100 µg/mL (Marburg strain; [2]) is reported as 80%.

With `CN(C)C1C(=O)C(C(N)=O)=C(O)C2(O)C(=O)C3=C(O)c4c(O)cccc4C(C)(O)C3CC12` (stereo not shown) [Tetracycline] the inhibition at 100 µg/mL (Clostridium pasteurianum; [1]) was 100% and the inhibition at 100 µg/mL (Marburg strain; [2]) was 100%.
